Measurements: ChEMBL document CHEMBL1141845, “A new bistetrahydrofuran acetogenin from the roots of Annona salzmanii” (J Nat Prod, 1999)

Assays:
KB = experiment: Cytotoxicity against human KB cells; assay type: functional
[1] = Cytotoxicity against african green monkey Vero cells; assay type: cell-based; conditions: chlorocebus sabaeus, read-out: ED50 (the source's name)

CCCCCC[C@H](O)CCC[C@H](O)[C@H]1CC[C@@H]([C@H]2CC[C@H]([C@H](O)CC[C@H](O)CCCCCCCCCC3=C[C@H](C)OC3=O)O2)O1 [SALZMANIN]
ED50 (KB): 0.1 ×10⁻⁴ ug/ml | CC50 [1]: > 0.01 µg/mL

CCCCCC[C@H](O)CCC[C@H](O)[C@H]1CC[C@H]([C@H]2CC[C@H]([C@H](O)CCCCCCCCCCCCC3=C[C@H](C)OC3=O)O2)O1 [SQUAMOCIN]
ED50 (KB): 4 ×10⁻⁴ ug/ml

CC[C@]1(O)C[C@@H]2CN(CCc3c([nH]c4ccccc34)[C@@](C(=O)OC)(c3cc4c(cc3OC)N(C)[C@H]3[C@@](O)(C(=O)OC)[C@H](OC(C)=O)[C@]5(CC)C=CCN6CC[C@]43[C@@H]65)C2)C1 [VINBLASTINE]
ED50 (KB): 0.1 ×10⁻⁴ ug/ml
